From patent US20120165331A1, “Di/tri-aza-spiro-C9-C11alkanes” (priority 2010, published 2012)

Columns and labels:
human orexin 1 receptor [1] = biological target: T1, human orexin 1 receptor (Homo sapiens, UniProt O43613); assay: Radioligand binding assay ([3H]-SB649868 competition), human orexin 1 receptor; conditions: radioligand [3H]-SB649868; read-out: Binding hOx1R Kd
T1 construct: expressed in transfected cells
T1 sequence (O43613 1-425): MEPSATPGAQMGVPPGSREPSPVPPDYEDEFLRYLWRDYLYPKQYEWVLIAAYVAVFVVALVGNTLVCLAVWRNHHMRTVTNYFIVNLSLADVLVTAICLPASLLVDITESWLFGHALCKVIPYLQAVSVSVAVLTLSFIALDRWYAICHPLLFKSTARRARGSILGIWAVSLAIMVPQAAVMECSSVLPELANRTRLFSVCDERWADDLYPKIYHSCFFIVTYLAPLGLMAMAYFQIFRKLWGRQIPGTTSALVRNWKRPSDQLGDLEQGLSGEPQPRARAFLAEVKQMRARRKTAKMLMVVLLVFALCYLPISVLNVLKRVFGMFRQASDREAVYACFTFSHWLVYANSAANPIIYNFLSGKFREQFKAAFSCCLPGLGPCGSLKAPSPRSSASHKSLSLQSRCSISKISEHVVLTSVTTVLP
Description: (§1) Radioligand Binding Assay
(§2) For crude cell membrane preparations, cells (CHO, Chinese hamster ovary or HEK, human embryonic kidney) expressing human orexin 1 or human orexin 2 receptors, were washed with HEPES (10 mM, pH 7.5), scraped off the culture plates with the same buffer, and centrifuged at 4° C. for 5 min at 2500×g. The cell pellet was either stored at −80° C. or used directly. Before the experiments, cell membranes were re-suspended in binding assay buffer (10 mM HEPES, 0.5% (w/v) bovine serum albumin, pH 7.5) by homogenisation with a Polytron homogeniser at 50 Hz for 20 s. Cell membranes were also used as made available by commercial providers.
(§3) Bound radioactivity was measured, and data were analysed with the program XLFIT or Graphpad Prism. Protein concentration was determined according to the Bradford/BioRad Protein Assay Kit.
(§4) In competition experiments, cell homogenates (150 μl) were incubated in assay buffer (10 mM HEPES, pH 7.5, 0.5% (w/v) bovine serum albumin, 5 mM MgCl2, 1 mMCaCl2, and tween 0.05%) for 1 h at room temperature with about 1 nM of the radioligand [^3H]-SB649868, 66 Ci/mmole, 50 μl), and with various concentrations of compounds of the invention (50 μl) in triplicates; non-specific binding was determined in the presence of almorexant (10 μM). Reactions were terminated by vacuum filtration, 3 washes of ice cold wash buffer (Tris-HCl pH 7.4/10 mM, with NaCl 154 mM). Competition data is expressed in Table 1 as Kd [μM].

human orexin 2 receptor [2] = biological target: T2, human orexin 2 receptor (Homo sapiens, UniProt O43614); assay: Radioligand binding assay ([3H]-SB649868 competition), human orexin 2 receptor; conditions: radioligand [3H]-SB649868; read-out: Binding hOx2R Kd
T2 construct: expressed in transfected cells
T2 sequence (O43614 1-444): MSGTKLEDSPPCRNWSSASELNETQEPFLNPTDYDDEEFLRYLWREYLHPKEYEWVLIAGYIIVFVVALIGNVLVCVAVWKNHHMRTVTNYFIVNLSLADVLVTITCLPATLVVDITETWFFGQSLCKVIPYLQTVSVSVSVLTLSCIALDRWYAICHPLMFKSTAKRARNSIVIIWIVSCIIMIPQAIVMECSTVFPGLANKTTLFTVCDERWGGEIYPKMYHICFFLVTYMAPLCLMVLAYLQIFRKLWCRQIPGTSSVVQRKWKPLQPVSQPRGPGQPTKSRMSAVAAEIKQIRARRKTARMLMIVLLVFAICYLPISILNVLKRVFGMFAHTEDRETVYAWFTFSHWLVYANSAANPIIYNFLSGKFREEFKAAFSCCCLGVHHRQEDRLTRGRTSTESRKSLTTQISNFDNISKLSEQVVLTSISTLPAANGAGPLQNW
Description: as §1, §2, §3, §4

human orexin 1 receptor [3] = biological target: T1, human orexin 1 receptor; assay: Calcium accumulation in cells (FLIPR), antagonism of orexin A, human orexin 1 receptor; type: cell-based; conditions: calcium accumulation, antagonism of orexin A, Cheng-Prusoff corrected; read-out: FLIPR hOx1R Ki
human orexin 2 receptor [4] = biological target: T2, human orexin 2 receptor; assay: Calcium accumulation in cells (FLIPR), antagonism of orexin A, human orexin 2 receptor; type: cell-based; conditions: calcium accumulation, antagonism of orexin A, Cheng-Prusoff corrected; read-out: FLIPR hOx2R Ki

Row | Compound | Kd (human orexin 1 receptor [1]) [nM] | Kd (human orexin 2 receptor [2]) [nM] | Ki (human orexin 1 receptor [3]) [nM] | Ki (human orexin 2 receptor [4]) [nM]
1 | Cc1cc(C)nc(N2CCC3(CC2)NCCN(Cc2nn(C)cc2-c2cccc(C(F)(F)F)c2)C3=O)n1 [Example 1.41, 9-(4,6-Dimethyl-pyrimidin-2-yl)-4-((1-methyl-4-(3-(trifluoromethyl)phenyl)-1H-pyrazol-3-yl)methyl)-1,4,9-triazaspiro[5.5] undecan-5-one] | 3170 | 182 | 1580 | 16
2 | Cc1cc(C)nc(N2CCC3(CC2)NCCN(Cc2nn(C)cc2-c2cccc(Cl)c2)C3=O)n1 [Example 1.42, 4-((4-(3-Chlorophenyl)-1-methyl-1H-pyrazol-3-yl)methyl)-9-(4,6-dimethyl-pyrimidin-2-yl)-1,4,9-triazaspiro[5.5] undecan-5-one] | 6490 | 391 | 3280 | 83
3 | Cc1cc(C)nc(N2CCC3(CC2)NCCN(Cc2nn(C)cc2-c2cccc(OC(F)(F)F)c2)C3=O)n1 [Example 1.46, 9-(4,6-Dimethyl-pyrimidin-2-yl)-4-((1-methyl-4-(3-(trifluoro-methoxy)phenyl)-1H-pyrazol-3-yl)methyl)-1,4,9-triazaspiro[5.5] undecan-5-one] | 3880 | 91 | 2040 | 5
4 | Cc1cc(C)nc(N2CCC3(CC2)NCCN(Cc2nn(C)cc2-c2cccc(OC(C)C)c2)C3=O)n1 [Example 1.47, 9-(4,6-Dimethyl-pyrimidin-2-yl)-4-((4-(3-iso-propoxyphenyl)-1-methyl-1H-pyrazol-3-yl)methyl)-1,4,9-triazaspiro[5.5] undecan-5-one] | 187 | 7 | 135 | 1
5 | CC(=O)c1cccc(-c2cn(C)nc2CN2CCNC3(CCN(c4nc(C)cc(C)n4)CC3)C2=O)c1 [Example 1.48, 4-((4-(3-Acetylphenyl)-1-methyl-1H-pyrazol-3-yl)methyl)-9-(4,6-dimethyl-pyrimidin-2-yl)-1,4,9-triazaspiro[5.5] undecan-5-one] | 2270 | 99 | 2740 | 12
6 | Cc1cc(C)nc(N2CCC3(CC2)NCCN(Cc2nn(C)cc2-c2cccc(OCC4CC4)c2)C3=O)n1 [Example 1.52, 4-((4-(3-(Cyclo-propylmethoxy)phenyl)-1-methyl-1H-pyrazol-3-yl)methyl)-9-(4,6-dimethylpyrimidin-2-yl)-1,4,9-triazaspiro[5.5] undecan-5-one] | 436 | 50 | 286 | 2.8
7 | Cc1cc(C)nc(N2CCC3(CC2)NCCN(Cc2nn(C)cc2-c2cccc(OCC(C)C)c2)C3=O)n1 [Example 1.53, 9-(4,6-Dimethyl-pyrimidin-2-yl)-4-((4-(3-isobutoxyphenyl)-1-methyl-1H-pyrazol-3-yl)methyl)-1,4,9-triazaspiro[5.5] undecan-5-one] | 319 | 45 | 331 | 7
8 | COc1ccc2[nH]nc(CN3CCNC4(CCN(c5nc(C)cc(C)n5)CC4)C3=O)c2c1 [Example 1.56, 9-(4,6-Dimethyl-pyrimidin-2-yl)-4-((5-methoxy-1H-indazol-3-yl)methyl)-1,4,9-triazaspiro[5.5] undecan-5-one] | 492 | 11 | 594 | 2.7
9 | Cc1cc(C)nc(N2CCC3(CC2)NCCN(Cc2nn(C)cc2-c2cccc(OC4CC4)c2)C3=O)n1 [Example 1.62, 4-((4-(3-Cyclo-propoxyphenyl)-1-methyl-1H-pyrazol-3-yl)methyl)-9-(4,6-dimethyl-pyrimidin-2-yl)-1,4,9-triazaspiro[5.5] undecan-5-one] | 142 | 8 | 163 | 1
10 | COc1cc(C)nc(N2CCC3(CC2)NCCN(Cc2n[nH]c4ccccc24)C3=O)n1 [Example 1.65, 4-((1H-indazol-3-yl)methyl)-9-(4-methoxy-6-methyl-pyrimidin-2-yl)-1,4,9-triazaspiro[5.5] undecan-5-one] | 1160 | 58 | 1580 | 21
11 | CCc1cccc(-c2cn(C)nc2CN2CCNC3(CCN(c4nc(C)cc(C)n4)CC3)C2=O)c1 [Example 1.67, 9-(4,6-dimethyl-pyrimidin-2-yl)-4-((4-(3-ethyl-phenyl)-1-methyl-1H-pyrazol-3-yl)methyl)-1,4,9-triazaspiro[5.5] undecan-5-one] | 1770 | 50 | 1140 | 5
12 | Cc1cc(C)nc(N2CCC3(CC2)NCCN(Cc2nn(C)cc2-c2cccc(C(C)C)c2)C3=O)n1 [Example 1.68, 9-(4,6-dimethyl-pyrimidin-2-yl)-4-((4-(3-isopropyl-phenyl)-1-methyl-1H-pyrazol-3-yl)methyl)-1,4,9-triazaspiro[5.5] undecan-5-one] | 1440 | 13 | 945 | 4
13 | CCC(=O)c1cccc(-c2cn(C)nc2CN2CCNC3(CCN(c4nc(C)cc(C)n4)CC3)C2=O)c1 [Example 1.70, 9-(4,6-dimethyl-pyrimidin-2-yl)-4-((1-methyl-4-(3-propionylphenyl)-1H-pyrazol-3-yl)methyl)-1,4,9-triazaspiro[5.5] undecan-5-one] | 465 | 21 | 856 | 2
14 | Cc1cc(C)nc(N2CCC3(CC2)NCCN(Cc2nn(C)cc2-c2cccc(C(F)F)c2)C3=O)n1 [Example 1.71, 4-((4-(3-(difluoromethyl)phenyl)-1-methyl-1H-pyrazol-3-yl)methyl)-9-(4,6-dimethylpyrimidin-2-yl)-1,4,9-triazaspiro[5.5] undecan-5-one] | 1700 | 227 | 2060 | 30
15 | Cc1cc(C)nc(N2CCC3(CC2)NCCN(Cc2nn(C)cc2-c2cccc(OCCOC(C)C)c2)C3=O)n1 [Example 1.72, 9-(4,6-dimethyl-pyrimidin-2-yl)-4-((4-(3-(2-iso-propoxyethoxy)phenyl)-1-methyl-1H-pyrazol-3-yl)methyl)-1,4,9-triazaspiro[5.5] undecan-5-one] | 846 | 203 | 1590 | 49
16 | Cc1cc(C)nc(N2CCC3(CC2)NCCN(Cc2nn(C)cc2-c2cccc(N4CCOCC4)c2)C3=O)n1 [Example 1.73, 9-(4,6-dimethyl-pyrimidin-2-yl)-4-((1-methyl-4-(3-morpholinophenyl)-1H-pyrazol-3-yl)methyl)-1,4,9-triazaspiro[5.5] undecan-5-one] | 1380 | 163 | 862 | 20
17 | COc1cc(-c2nn(C)nc2CN2CCNC3(CCN(c4nc(C)cc(C)n4)CC3)C2=O)ccn1 [Example 1.74, 9-(4,6-dimethyl-pyrimidin-2-yl)-4-((5-(2-methoxy-pyridin-4-yl)-2-methyl-2H-1,2,3-triazol-4-yl)methyl)-1,4,9-triazaspiro[5.5] undecan-5-one] | 2500 | 127 | 4270 | 48
18 | Cc1cc(C)nc(N2CCC3(CC2)NCCN(Cc2nn(C)nc2-c2cccc(N4CCOCC4)c2)C3=O)n1 [Example 1.77] | 2840 | 225 | 2880 | 56
